Where “and” joins values, the source holds several entries; their conditions need not be identical. Equal entries are not always repeated.
Test system: Swiss mice, Sarcoma 180 sc, mean tumor weight T/C
Assay: NCI In Vivo Anticancer Drug Screen. Data for tumor model Sarcoma 180 (subcutaneous) in Swiss mice
Details: endpoint: mean tumor weight, higher = larger tumour
Outline: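 Tumor-bearing mice, transplantable tumor; readout survival or tumor size; result = T/C, treated vs vehicle control.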

## NC1(C(=O)O)CCCC1
dose: 4.62 mg/kg/injection, schedule: Q#A X014 (ip), vehicle: carboxymethylcellulose (CMC)
  T/C: 86 % of control
dose: 6.25 mg/kg/injection, schedule: Q#A X014 (ip), vehicle: carboxymethylcellulose (CMC)
  T/C: 72 % of control
dose: 9.25 mg/kg/injection, schedule: Q#A X014 (ip), vehicle: carboxymethylcellulose (CMC)
  T/C: 101 % of control
dose: 12.5 mg/kg/injection, schedule: Q#A X014 (ip), vehicle: carboxymethylcellulose (CMC)
  T/C: 101 % of control
dose: 15.0 mg/kg/injection, schedule: Q01DX007 (ip), vehicle: water
  T/C: 75 % of control
dose: 18.5 mg/kg/injection, schedule: Q#A X014 (ip), vehicle: carboxymethylcellulose (CMC)
  T/C: 77 % of control
dose: 25.0 mg/kg/injection, schedule: Q01DX007 (ip), vehicle: saline
  T/C: 75 % of control
dose: 25.0 mg/kg/injection, schedule: Q#A X014 (ip), vehicle: carboxymethylcellulose (CMC)
  T/C: 75 % of control
dose: 30.0 mg/kg/injection, schedule: Q01DX007 (ip), vehicle: water
  T/C: 78 % of control
dose: 33.0 mg/kg/injection, schedule: Q#A X014 (ip), vehicle: saline
  T/C: 56 % of control
dose: 37.0 mg/kg/injection, schedule: Q#A X014 (ip), vehicle: carboxymethylcellulose (CMC)
  T/C: 50 % of control
dose: 50.0 mg/kg/injection, schedule: Q01DX007 (ip), vehicle: saline
  T/C: 64 % of control
dose: 50.0 mg/kg/injection, schedule: Q#A X014 (ip), vehicle: carboxymethylcellulose (CMC)
  T/C: 35 % of control
dose: 50.0 mg/kg/injection, schedule: Q#A X014 (ip), vehicle: saline
  T/C: 44 % of control
dose: 60.0 mg/kg/injection, schedule: Q01DX007 (ip), vehicle: water
  T/C: 35 % of control
dose: 62.0 mg/kg/injection, schedule: Q01DX007 (ip), vehicle: saline
  T/C: 61 % of control
dose: 75.0 mg/kg/injection, schedule: Q#A X014 (ip), vehicle: saline
  T/C: 23 % of control
dose: 100.0 mg/kg/injection, schedule: Q01DX007 (ip), vehicle: saline
  T/C: 47 % of control
dose: 120.0 mg/kg/injection, schedule: Q01DX007 (ip), vehicle: water
  T/C: 22 % of control
dose: 125.0 mg/kg/injection, schedule: Q01DX007 (ip), vehicle: saline
  T/C: 30 % of control
dose: 200.0 mg/kg/injection, schedule: Q01DX007 (ip), vehicle: saline
  T/C: 22 % of control

## CS(C)=O
dose: 1000.0 mg/kg/injection, schedule: Q01DX007 (ip), vehicle: other
  T/C: 71 % of control
dose: 1000.0 mg/kg/injection, schedule: Q#A X014 (ip), vehicle: other
  T/C: 91 % of control
dose: 1500.0 mg/kg/injection, schedule: Q01DX007 (ip), vehicle: other
  T/C: 84 % of control
dose: 1500.0 mg/kg/injection, schedule: Q#A X014 (ip), vehicle: other
  T/C: 99 % of control

## COC(=O)[C@H]1[C@H]2C[C@@H]3c4[nH]c5cc(OC)ccc5c4CCN3C[C@H]2C[C@@H](OC(=O)c2cc(OC)c(OC)c(OC)c2)[C@@H]1OC
dose: 0.44 mg/kg/injection, schedule: Q01DX007 (ip), vehicle: carboxymethylcellulose (CMC)
  T/C: 101 % of control
dose: 0.5 mg/kg/injection, schedule: Q01DX007 (ip), vehicle: carboxymethylcellulose (CMC)
  T/C: 91 % of control
dose: 0.66 mg/kg/injection, schedule: Q01DX007 (ip), vehicle: carboxymethylcellulose (CMC)
  T/C: 79 % of control
dose: 2.0 mg/kg/injection, schedule: Q01DX007 (ip), vehicle: carboxymethylcellulose (CMC)
  T/C: 35 % of control
dose: 2.3 mg/kg/injection, schedule: Q01DX007 (ip), vehicle: carboxymethylcellulose (CMC)
  T/C: 42 % of control
dose: 3.4 mg/kg/injection, schedule: Q01DX007 (ip), vehicle: carboxymethylcellulose (CMC)
  T/C: 18 % of control

## O=C1C=CC(=O)N1c1ccc2c(c1)oc(=O)c1ccccc12
dose: 60.0 mg/kg/injection, schedule: Q01DX007 (ip), vehicle: other
  T/C: 76 % of control
dose: 95.0 mg/kg/injection, schedule: Q01DX007 (ip), vehicle: other
  T/C: 58 % of control
dose: 99.0 mg/kg/injection, schedule: Q01DX007 (ip), vehicle: steriod suspending solution
  T/C: 51 % of control
dose: 148.0 mg/kg/injection, schedule: Q01DX007 (ip), vehicle: other
  T/C: 42 % of control
dose: 148.0 mg/kg/injection, schedule: Q01DX007 (ip), vehicle: steriod suspending solution
  T/C: 81 % of control
dose: 222.0 mg/kg/injection, schedule: Q01DX007 (ip), vehicle: other
  T/C: 36 % of control and 44 % of control
dose: 222.0 mg/kg/injection, schedule: Q01DX007 (ip), vehicle: steriod suspending solution
  T/C: 69 % of control
dose: 333.0 mg/kg/injection, schedule: Q01DX007 (ip), vehicle: other
  T/C: 49 % of control
dose: 500.0 mg/kg/injection, schedule: Q01DX007 (ip), vehicle: other
  T/C: 29 % of control

## CO[C@H]1CC[C@@]2(C)C(=CC[C@H]3[C@@H]4C[C@H](O)[C@H](OC)[C@@]4(C)CC[C@@H]32)C1
dose: 0.25 mg/kg/injection, schedule: Q#A X014 (sc), vehicle: steriod suspending solution
  T/C: 94 % of control
dose: 2.5 mg/kg/injection, schedule: Q#A X014 (sc), vehicle: steriod suspending solution
  T/C: 85 % of control
dose: 10.0 mg/kg/injection, schedule: Q#A X014 (sc), vehicle: steriod suspending solution
  T/C: 122 % of control
dose: 50.0 mg/kg/injection, schedule: Q#A X014 (sc), vehicle: steriod suspending solution
  T/C: 97 % of control

## COC12C(COC(N)=O)C3=C(C(=O)C(C)=C(N)C3=O)N1CC1C2N1C (configuration not stated)
dose: 0.62 mg/kg/injection, schedule: Q#A X014 (ip), vehicle: carboxymethylcellulose (CMC)
  T/C: 62 % of control
dose: 1.25 mg/kg/injection, schedule: Q#A X014 (ip), vehicle: carboxymethylcellulose (CMC)
  T/C: 123 % of control
dose: 7.5 mg/kg/injection, schedule: Q#A X014 (ip), vehicle: carboxymethylcellulose (CMC)
  T/C: 65 % of control
dose: 15.0 mg/kg/injection, schedule: Q#A X014 (ip), vehicle: carboxymethylcellulose (CMC)
  T/C: 6 % of control and 16 % of control and 25 % of control
dose: 20.0 mg/kg/injection, schedule: Q#A X014 (ip), vehicle: carboxymethylcellulose (CMC)
  T/C: 2 % of control

## CC(=O)[C@@]1(O)CC[C@H]2[C@@H]3C[C@H](C)C4=CC(=O)C=C[C@]4(C)[C@@]3(F)[C@@H](O)C[C@@]21C
dose: 6.9 mg/kg/injection, schedule: Q01DX007 (sc), vehicle: steriod suspending solution
  T/C: 102 % of control
dose: 16.0 mg/kg/injection, schedule: Q01DX007 (sc), vehicle: steriod suspending solution
  T/C: 76 % of control
dose: 17.0 mg/kg/injection, schedule: Q01DX007 (sc), vehicle: steriod suspending solution
  T/C: 60 % of control
dose: 24.0 mg/kg/injection, schedule: Q01DX007 (sc), vehicle: steriod suspending solution
  T/C: 78 % of control
dose: 26.0 mg/kg/injection, schedule: Q01DX007 (sc), vehicle: steriod suspending solution
  T/C: 19 % of control and 23 % of control
dose: 27.5 mg/kg/injection, schedule: Q01DX007 (sc), vehicle: steriod suspending solution
  T/C: 65 % of control
dose: 27.5 mg/kg/injection, schedule: Q#A X014 (sc), vehicle: steriod suspending solution
  T/C: 33 % of control
dose: 36.5 mg/kg/injection, schedule: Q01DX007 (sc), vehicle: steriod suspending solution
  T/C: 57 % of control
dose: 40.0 mg/kg/injection, schedule: Q01DX007 (sc), vehicle: steriod suspending solution
  T/C: 17 % of control and 23 % of control and 36 % of control
dose: 41.5 mg/kg/injection, schedule: Q#A X014 (sc), vehicle: steriod suspending solution
  T/C: 40 % of control
dose: 60.0 mg/kg/injection, schedule: Q01DX007 (sc), vehicle: steriod suspending solution
  T/C: 29 % of control
dose: 62.5 mg/kg/injection, schedule: Q#A X014 (sc), vehicle: steriod suspending solution
  T/C: 34 % of control and 45 % of control
dose: 83.0 mg/kg/injection, schedule: Q01DX007 (sc), vehicle: steriod suspending solution
  T/C: 38 % of control
dose: 85.0 mg/kg/injection, schedule: Q01DX007 (sc), vehicle: steriod suspending solution
  T/C: 34 % of control
dose: 90.0 mg/kg/injection, schedule: Q01DX007 (sc), vehicle: steriod suspending solution
  T/C: 18 % of control
dose: 125.0 mg/kg/injection, schedule: Q01DX007 (sc), vehicle: steriod suspending solution
  T/C: 17 % of control
dose: 135.0 mg/kg/injection, schedule: Q01DX007 (sc), vehicle: steriod suspending solution
  T/C: 19 % of control
dose: 188.0 mg/kg/injection, schedule: Q01DX007 (sc), vehicle: steriod suspending solution
  T/C: 46 % of control
dose: 282.0 mg/kg/injection, schedule: Q01DX007 (sc), vehicle: steriod suspending solution
  T/C: 25 % of control and 26 % of control
dose: 300.0 mg/kg/injection, schedule: Q01DX007 (sc), vehicle: steriod suspending solution
  T/C: 34 % of control
dose: 423.0 mg/kg/injection, schedule: Q01DX007 (sc), vehicle: steriod suspending solution
  T/C: 20 % of control and 39 % of control
dose: 500.0 mg/kg/injection, schedule: Q01DX007 (sc), vehicle: steriod suspending solution
  T/C: 3 % of control
dose: 600.0 mg/kg/injection, schedule: Q01DX007 (sc), vehicle: steriod suspending solution
  T/C: 30 % of control
dose: 630.0 mg/kg/injection, schedule: Q01DX007 (sc), vehicle: steriod suspending solution
  T/C: 15 % of control
dose: 900.0 mg/kg/injection, schedule: Q01DX007 (sc), vehicle: steriod suspending solution
  T/C: 27 % of control
dose: 945.0 mg/kg/injection, schedule: Q01DX007 (sc), vehicle: steriod suspending solution
  T/C: 22 % of control
dose: 1400.0 mg/kg/injection, schedule: Q01DX007 (sc), vehicle: steriod suspending solution
  T/C: 14 % of control

## CCCCCCCCCCCCCCCCCC1=NC(C)CC(C)(C)O1 (configuration not stated)
dose: 187.5 mg/kg/injection, schedule: Q#A X014 (ip), vehicle: saline
  T/C: 63 % of control

From PubChem BioAssay AID342 (DTP/NCI, 2004)
